Source: patent US20100324279A1, “CRYSTAL FORMS OF 2-[2-(4-CHLOROPHENYL)ETHOXY]ADENOSINE” (priority 2007, published 2010)
Converted amounts (≈) assume the structure as drawn.

Legend:
[1] = Approximate solubilities of A-type crystals of MRE-0094 in test solvents; format: physicochemical; settings: organic solvent or mixture, thermodynamic from solid; PG, RT; agitated two days, calculated from difference between starting and ending weights
[2] = Heat stress studies and variable temperature XRPD; format: physicochemical
Protocol: For heat stress studies, samples of MRE-0094 A-type crystals are heated isothermally at different temperatures to investigate the effect of temperatures on solid state conversions. The samples are heated for up to 15 min. The solid material is allowed to cool before analyzing by XRPD.
(2 min). Variable temperature XRPD (VT-XRPD) may be performed on A-type crystals of MRE-0094 to better understand its thermal behavior. […] The sample remains as B-type crystals up to 165° C. […] It is likely that the melting of B-type crystals, subsequent recrystallization, and final melting of the solid occurs too fast to be captured by VT-XRPD. Based on the VT-XRPD data, the thermal events observed by DSC at approximately 117° C. and 126° C. are due to the solid conversion followed by the subsequent recrystallization to form B-type crystals.

[3] = Approximate solubilities of A-type crystals of MRE-0094 in test solvents; format: physicochemical; settings: thermodynamic from solid
Protocol: Weighed samples of MRE-0094 (typically 30-60 mg) are treated with aliquots of the test solvent. Solvents are either reagent or HPLC grade. The aliquots are usually 200 μL or 500 μL. Between additions the mixtures are sonicated. […] Note that actual solubilities may be greater than those calculated due to the volume of the solvent aliquots or to a slow rate of dissolution. […] The solubilities are reported to the nearest mg/mL.

[4] = Moisture sorption/desorption analysis; format: physicochemical; settings: for Solid material after moisture sorption identified by XRPD: after sorption/desorption 5 to 95% RH; for Moisture sorption: total weight gain: between 5% and 95% relative humidity (RH); for Hygroscopicity based on the moisture sorption data: exposed to high relative humidity; for Weight lost upon desorption: after sorption to 95% RH
Protocol: Moisture sorption/desorption analyses may be performed, e.g., on a VTI SGA-100 Vapor Sorption Analyzer Sorption and desorption data are collected, e.g., over a range of 5 to 95% relative humidity (RH) at 10% RH intervals under a nitrogen purge. Samples need not to be dried prior to analysis. Equilibrium criteria used for analysis are, e.g., less than 0.01% weight change in 5 min, with a maximum equilibration time of 3 h if the weight criterion is not met NaCl and PVP may used as calibration standards.

[5] = Desolvation/dehydration studies under various drying conditions (XRPD); format: physicochemical; settings: for Solid form after exposure to ambient conditions: eight days
Protocol: Desolvation studies under various conditions may be performed to investigate the effects of drying conditions on the C-type crystals. […] However, the anhydrous form to which C-type crystals convert may be dependent on the drying conditions and temperature.
Desolvation studies under various conditions may be conducted to investigate the effects of drying conditions on F-type crystals.
Dehydration studies under various conditions are performed to investigate the effects of drying conditions on the I-type crystals.

[6] = Stability to mechanical grinding/milling followed by vapor stress (XRPD); format: physicochemical; settings: ball-milling, then about 97% relative humidity, K2SO4 humidity jar, 1 day
Source text: Stability to grinding may be assessed by measurement of an appropriate physical property before and after grinding. Where the physical property remains substantially unchanged substantial stability to grinding is indicated. Suitable physico-chemical properties for measurement include a melting point or DSC analysis, a X-ray diffraction pattern, an infrared absorption spectrum and a Raman spectrum, particularly the X-ray diffraction pattern.
Stability to mechanical grinding/milling may be tested, e.g., by employing a small stainless steel cylinder The cylinder is charged with a weighted amount of a crystal form of MRE-0094 and a stainless steel ball is added, the cylinder is capped and the unit is placed on a Retsch Mixer Mill (Type MM 200) for a total of 30 min at a frequency of 30/s (ball-milling).

[7] = Phase I study: plasma concentrations of MRE-0094 (systemic absorption); format: in vivo, patients; settings: any topical dose concentration (5, 50, 500 μg/g gel)
Protocol: (§1) MRE-0094 is administered to patients with neuropathic, diabetic foot ulcers (DFU). Patients 18-80 years old are randomized in a 1:3 ratio to a standard DFU care and a vehicle gel, or a standard DFU care and a gel containing MRE-0094 as described herein above. Standard care include routine sharp debridement, pressure offloading, and maintaining a moist wound environment. Inclusion criteria includes full thickness wounds between 1 and 10 cm^2 in area. Exclusion criteria includes arterial insufficiency, renal or hepatic insufficiency, active infection, or osteomyelitis. Patients are enrolled into 3 groups, and receive drug at an escalating concentration by group of 5 μg/g, 50 μg/g, or 500 μg/g. Safety data are reviewed by an independent safety board prior to escalating dose. Drug or vehicle is applied topically once daily for 28 days. Outcome measures include adverse events and other safety assessments, plasma concentrations of the active agent MRE-0094, percent of wound closure, and rate of wound closure. Thirty-six patients are randomized (25 active agent, 11 vehicle gel, i.e., placebo) with an average age of 54.8 years, 78% are male.

[8] = system: neuropathic, diabetic foot ulcers (DFU); assay: Phase I study of topical MRE-0094 gel: wound closure; format: in vivo; settings: DFU patients; for % Wound Closure (Day 28): topically once daily for 28 days; for Median Number of Days to: 50% Closure / Median Number of Days to: 75% Closure: topically once daily
Protocol: as §1

[9] = system: diabetic ulcers; settings: healthy BALB/C mice; cited from earlier work

Nc1nc(OCCc2ccc(Cl)cc2)nc2c1ncn2[C@@H]1O[C@H](CO)[C@@H](O)[C@H]1O [A-type crystal form, 2-[2-(4-chlorophenyl)ethoxy]adenosine]
solubility at 2 days [1]: < 71000 µg/mL
Temperature of solid form conversion in heat stress studies ([2]; isothermal heating, 2 min): approximately 164 °C
Temperature of conversion to B-type crystal form (VT-XRPD) ([2]; variable temperature XRPD): 120 °C
Temperature up to which the crystal form remains as such (VT-XRPD) ([2]; variable temperature XRPD): up to 115 °C
solubility ([3]; aqueous with cosolvent or surfactant or cyclodextrin, EtOH:water - 1:1, RT): 9000 µg/mL (≈ 21.3 mM)
solubility ([3]; aqueous with cosolvent or surfactant or cyclodextrin, water:PG - 1:1, RT): 6000 µg/mL (≈ 14.2 mM)
solubility ([3]; organic solvent or mixture, 1,4-dioxane, RT): 17000 µg/mL (≈ 40.3 mM)
solubility ([3]; organic solvent or mixture, ACN, RT): < 3000 µg/mL
solubility ([3]; organic solvent or mixture, DCM, RT): < 2000 µg/mL
solubility ([3]; organic solvent or mixture, DMF, RT): 179000 µg/mL (≈ 424 mM)
solubility ([3]; organic solvent or mixture, EtOAc, RT): < 4000 µg/mL
solubility ([3]; organic solvent or mixture, EtOH, RT): 7000 µg/mL (≈ 16.6 mM)
solubility ([3]; organic solvent or mixture, EtOH:water - 19:1, RT): 12000 µg/mL (≈ 28.4 mM)
solubility ([3]; organic solvent or mixture, IPA, RT): 4000 µg/mL (≈ 9.48 mM)
solubility ([3]; organic solvent or mixture, MEK, RT): 4000 µg/mL (≈ 9.48 mM)
solubility ([3]; organic solvent or mixture, MeOH, RT): 4000 µg/mL (≈ 9.48 mM)
solubility ([3]; organic solvent or mixture, TFE, RT): 11000 µg/mL (≈ 26.1 mM)
solubility ([3]; organic solvent or mixture, THF, RT): 23000 µg/mL (≈ 54.5 mM)
solubility ([3]; organic solvent or mixture, acetone, RT): 5000 µg/mL (≈ 11.9 mM)
solubility ([3]; organic solvent or mixture, heptane, RT): < 4000 µg/mL
solubility ([3]; organic solvent or mixture, toluene, RT): < 4000 µg/mL
solubility ([3]; water, RT): < 300 µg/mL
Solid material after moisture sorption identified by XRPD [4]: A-type crystal form
Moisture sorption: total weight gain [4]: approximately 4.3%
Moisture sorption: weight gain ([4]; between 5 and 55% RH): approximately 0.3%
Moisture sorption: additional weight gain ([4]; between 55% and 95% RH): 4.0%
Hygroscopicity based on the moisture sorption data [4]: hygroscopic

Nc1nc(OCCc2ccc(Cl)cc2)nc2c1ncn2[C@@H]1O[C@H](CO)[C@@H](O)[C@H]1O [B-type crystal form, 2-[2-(4-chlorophenyl)ethoxy]adenosine]
Weight lost upon desorption [4]: Approximately 3.7%
Solid material after moisture sorption identified by XRPD [4]: B-type crystal form
Moisture sorption: total weight gain [4]: approximately 3.9%
Hygroscopicity based on the moisture sorption data [4]: hygroscopic

Nc1nc(OCCc2ccc(Cl)cc2)nc2c1ncn2[C@@H]1O[C@H](CO)[C@@H](O)[C@H]1O [C-type crystal form, 2-[2-(4-chlorophenyl)ethoxy]adenosine]
Solid form after exposure to ambient conditions [5]: does not completely convert to A-type crystals
Solid form after desolvation ([5]; heated at 60° C. for eight days or dried in vacuo for six days): convert to A-type crystal form

Nc1nc(OCCc2ccc(Cl)cc2)nc2c1ncn2[C@@H]1O[C@H](CO)[C@@H](O)[C@H]1O [F-type crystal form, 2-[2-(4-chlorophenyl)ethoxy]adenosine]
Solid form after exposure to ambient conditions ([5]; listed as F-type crystals): Amorphous/low crystalline material
Solid form after desolvation ([5]; vacuum oven and 60° C.): low crystalline mixture of A-type and B-type crystals

Nc1nc(OCCc2ccc(Cl)cc2)nc2c1ncn2[C@@H]1O[C@H](CO)[C@@H](O)[C@H]1O [G-type crystal form, 2-[2-(4-chlorophenyl)ethoxy]adenosine]
Stability to mechanical milling followed by vapor stress [6]: substantially stable
Weight lost upon desorption [4]: Approximately 2.2%
Solid material after moisture sorption identified by XRPD [4]: G-type crystal form
Moisture sorption: total weight gain [4]: approximately 2.4%
Hygroscopicity based on the moisture sorption data [4]: hygroscopic

Nc1nc(OCCc2ccc(Cl)cc2)nc2c1ncn2[C@@H]1O[C@H](CO)[C@@H](O)[C@H]1O [I-type crystal form, 2-[2-(4-chlorophenyl)ethoxy]adenosine]
Solid form after dehydration ([5]; various drying conditions): either B-type, or a mixture of A-type and B-type crystals

Nc1nc(OCCc2ccc(Cl)cc2)nc2c1ncn2[C@@H]1O[C@H](CO)[C@@H](O)[C@H]1O [MRE-0094, 2-[2-(4-chlorophenyl)ethoxy]adenosine]
Systemic absorption of MRE-0094 [7]: No systemic absorption
% Wound Closure (Day 28) ([8]; 5 μg/g gel): 60.7%
Median Number of Days to: 50% Closure ([8]; 5 μg/g gel): 8 days
Median Number of Days to: 75% Closure ([8]; 5 μg/g gel): 14 days
% Wound Closure (Day 28) ([8]; 50 μg/g gel): 67.5%
Median Number of Days to: 50% Closure ([8]; 50 μg/g gel): 12 days
Median Number of Days to: 75% Closure ([8]; 50 μg/g gel): 28 days
% Wound Closure (Day 28) ([8]; 500 μg/g gel): 35.4%
Median Number of Days to: 50% Closure ([8]; 500 μg/g gel): 14 days
Median Number of Days to: 75% Closure ([8]; 500 μg/g gel): 36 days
Wound healing of diabetic ulcers [9]: promote wound healing
